Results on eleven compounds are retold here after patent US10550155B2, “Anticancer peptides” (priority 2018, dated 2020).

The test system of one data set is HeLa cells. Put plainly: MTT cytotoxicity assay, HeLa cells. It counts as cell-based. The procedure: (§1) The cytotoxic as well as antiproliferative effect of peptides was determined using MTT [3-(4, 5-dimethylthiazol-2-yl)-2, 5-diphenyl tetrazolium bromide] colorimetric assay. MCF-7, NIH-3T3, HeLa and H460 cells were cultured and after confluency, cells were used to test the cytotoxicity by MTT assay. Briefly (3×10^4/mL) of MCF-7 and (2×10^4/mL) cells of NIH-3T3, HeLa and H460 were seeded in 96-wells plate and incubated at 37° C. in 5% CO2 for 24 h. The MCF-7 cells were then treated with different doses of peptides and re-incubated in 5% CO2 at 37° C. for 48 hours. […] Experiment was performed three times and all doses were repeated in triplicate and the calculations were done using formula for percent inhibition.

In data set [1] the test system is MCF-7 human breast cancer cell line. Put plainly: MTT cytotoxicity assay, MCF-7 cells. It counts as cell-based. Here is the method:
as §1
Background: Formazan colour is commonly taken as a measure of viable cells.

Data set [2] can be described thus: MTT cytotoxicity assay, 3T3 cells. The class given is cell-based, mouse. The note with it: mouse; for IC50: Cytotoxicity IC50, 3T3. The procedure: as §1
In data set [3] the test system is NIH-3T3 murine fibroblast cell line. Put plainly: MTT cytotoxicity assay, 3T3 cells. It counts as cell-based, mouse. Here is the method: as §1
Another data set concerns H460 cells. Put plainly: MTT cytotoxicity assay, H460 cells. It counts as cell-based. The procedure:
as §1

Data set [4] deals with DoHH2 cells (B-cell lymphoma). Put plainly: Alamar blue viability assay, DoHH2 cells. The class given is cell-based. Here is the method: The viability of DoHH2 cells was determined by Alamar blue assay. Briefly 200 μl of 1×10^5 cells/ml were incubated with different concentrations of compounds for 24 hours. A one-tenth volume of Alamar blue was then added and the incubation continued for 4 hrs. Absorbance was read in spectrophotometer at wavelengths of 570 nm and 600 nm.
(In general: Alamar Blue is a resazurin reagent that responds to reducing activity.)

The test system of data set [5] is Leishmania infantum promastigote and amastigote. The note with it: cited from earlier work.
The subject of another data set is THP-1 monocytes. Conditions: cited from earlier work.
In the next data set the test system is HepG2 cells. The note with it: cited from earlier work.
The test system of data set [6] is bacteria, yeasts, fungi, and protozoa. Conditions: cited from earlier work.
Where [7] appears, read: MTT, 48 hours, read-out: Cytotoxicity IC50, H460.
Where [8] appears, read: MTT, 48 hours, read-out: Cytotoxicity IC50, HeLa.
[9] abbreviates: MTT, 48 hours, read-out: Cytotoxicity IC50, MCF-7.
The mark [10] stands for this setting: Alamar blue, 24 hours, read-out: Cytotoxicity IC50, DoHH2.

As a reminder, the IC50 is the concentration that gives 50% inhibition.

Read-outs that look alike come from different tables or passages of the source. Where a SMILES comes first, the peptide text is derived from it. Bridges are numbered along the chain shown (N, C = ends). Roman numbers before positions name the chains, in order. [ ]: non-standard residue; d: D form. Some results are limits rather than exact numbers.

Turning to `COc1cccc2c1C(=O)c1c(O)c3c(c(O)c1C2=O)C[C@@](O)(C(=O)CO)C[C@@H]3O[C@H]1C[C@H](N)[C@H](O)[C@H](C)O1` [Doxorubicin, reference compound], the half-inhibitory concentration (IC50) in the data set on HeLa cells (Homo sapiens, HeLa, 48 h, read-out: Cytotoxicity IC50, HeLa) was 5.7 ± 0.36 µM; in data set [1] (Homo sapiens, MCF7, 48 h, read-out: Cytotoxicity IC50, MCF-7), 1.6 ± 0.2 µM.
With `CC[C@H](C)[C@H](NC(=O)[C@@H](C)NC(=O)[C@H](CO)NC(=O)[C@H](CC(C)C)NC(=O)[C@@H](N)Cc1ccccc1)C(=O)N[C@H](C(=O)NCC(=O)N[C@@H](CCSC)C(=O)N[C@@H](CC(C)C)C(=O)NCC(=O)N[C@@H](CCCCN)C(=O)N[C@@H](CC(C)C)C(=O)N[C@@H](Cc1ccccc1)C(N)=O)C(C)C` [compound 2, F-L-S-a-I-V-G-M-L-G-K-L-F] (H-FLS[dA]IVGMLGKLF-NH2), the IC50 in [2] was > 100 µM; in the data set with H460 cells (setting [7]), > 100 µM; with HeLa cells (setting [8]), > 100 µM; in data set [1] (setting [9]), 17.9 ± 1.1 µM; in data set [4] (setting [10]) it was > 100 µM. The “Cytotoxicity against 3T3 cell line (in words)” value (“Cytotoxicity … (in words)” for short) in data set [3] was “inactive”.
For the compound `CC[C@H](C)[C@H](NC(=O)CNC(=O)[C@H](CO)NC(=O)[C@H](CC(C)C)NC(=O)[C@@H](N)Cc1ccccc1)C(=O)N[C@H](C(=O)N[C@H](C)C(=O)N[C@@H](CCSC)C(=O)N[C@@H](CC(C)C)C(=O)NCC(=O)N[C@@H](CCCCN)C(=O)N[C@@H](CC(C)C)C(=O)N[C@@H](Cc1ccccc1)C(N)=O)C(C)C` [compound 3, F-L-S-G-I-V-a-M-L-G-K-L-F] (H-FLSGIV[dA]MLGKLF-NH2), in data set [2], the 50% inhibitory concentration (IC50) at 48 h was > 100 µM. The “Cytotoxicity … (in words)” value in data set [3] was “inactive”. The IC50 was > 100 µM in the data set on H460 cells (human, 48 h); > 100 µM in the data set on HeLa cells (human, 48 h); 22.4 ± 2.2 µM in data set [1] (human, 48 h); > 100 µM in [4] (human, 24 h).
On to `CC[C@H](C)[C@H](NC(=O)[C@@H](C)NC(=O)[C@H](CO)NC(=O)[C@H](CC(C)C)NC(=O)[C@@H](N)Cc1ccccc1)C(=O)N[C@H](C(=O)N[C@H](C)C(=O)N[C@@H](CCSC)C(=O)N[C@@H](CC(C)C)C(=O)NCC(=O)N[C@@H](CCCCN)C(=O)N[C@@H](CC(C)C)C(=O)N[C@@H](Cc1ccccc1)C(N)=O)C(C)C` [compound 5, F-L-S-a-I-V-a-M-L-G-K-L-F] (H-FLS[dA]IV[dA]MLGKLF-NH2), for which the IC50 at 48 h in data set [2] is > 100 µM. Also, the “Cytotoxicity … (in words)” value in [3] is on record as “no cytotoxicity”. Also, the 50% inhibitory concentration (IC50) in the data set with H460 cells (human, 48 h) is 37.3 ± 3.5 µM; in the data set on HeLa cells (human, 48 h), > 100 µM; in data set [1] (human, 48 h), 29.5 ± 6.03 µM; in data set [4] (human, 24 h), > 100 µM.
For the compound `CC[C@H](C)[C@H](NC(=O)[C@@H](C)NC(=O)[C@H](CO)NC(=O)[C@H](CC(C)C)NC(=O)[C@@H](N)Cc1ccccc1)C(=O)N[C@H](C(=O)N[C@H](C)C(=O)N[C@@H](CCSC)C(=O)N[C@@H](CC(C)C)C(=O)N[C@H](C)C(=O)N[C@@H](CCCCN)C(=O)N[C@@H](CC(C)C)C(=O)N[C@@H](Cc1ccccc1)C(N)=O)C(C)C` [compound 6, F-L-S-a-I-V-a-M-L-a-K-L-F] (H-FLS[dA]IV[dA]ML[dA]KLF-NH2), the half-maximal inhibitory concentration (IC50) at 48 h in data set [2] is > 100 µM. In addition, in data set [3], the “Cytotoxicity … (in words)” value is “inactive”. The half-maximal inhibitory concentration (IC50) in the data set on H460 cells (human, 48 h) was > 100 µM; in the data set on HeLa cells (human, 48 h), > 100 µM; in data set [1] (human, 48 h) it was 26.3 ± 5.8 µM; in data set [4] (human, 24 h) it was > 100 µM.
In the case of `CC[C@H](C)[C@H](NC(=O)CNC(=O)[C@H](CO)NC(=O)[C@H](CC(C)C)NC(=O)[C@@H](N)Cc1ccccc1)C(=O)N[C@H](C(=O)NCC(=O)N[C@@H](CCSC)C(=O)N[C@@H](CC(C)C)C(=O)N[C@H](C)C(=O)N[C@@H](CCCCNC(=O)[C@H](CC(C)C)NC(=O)[C@H](Cc1ccccc1)NC(=O)[C@H](CCCCN)NC(=O)[C@H](CCC(N)=O)NC(=O)[C@H](Cc1ccc(O)cc1)NC(=O)[C@H](C)NC(=O)[C@H](C)NC(=O)[C@H](CCC(=O)O)NC(=O)[C@H](CC(C)C)NC(=O)[C@@H](N)Cc1c[nH]c2ccccc12)C(=O)N[C@@H](CC(C)C)C(=O)N[C@@H](Cc1ccccc1)C(N)=O)C(C)C` [conjugate 7] (I: H-FLSGIVGML[dA]KLF-NH2 / II: H-WLEAAYQKFL; amide I:11-II:C), in [2], the IC50 at 48 h is > 100 µM. The concentration for half-maximal inhibition (IC50) with H460 cells (human, 48 h) was > 100 µM; in the data set on HeLa cells (human, 48 h), > 100 µM; in data set [4] (human, 24 h), > 100 µM.
As for `CC[C@H](C)[C@H](NC(=O)CNC(=O)[C@H](CO)NC(=O)[C@H](CC(C)C)NC(=O)[C@@H](N)Cc1ccccc1)C(=O)N[C@H](C(=O)NCC(=O)N[C@@H](CCSC)C(=O)N[C@@H](CC(C)C)C(=O)N[C@H](C)C(=O)N[C@@H](CCCCN)C(=O)N[C@@H](CC(C)C)C(=O)N[C@@H](Cc1ccccc1)C(=O)N[C@@H](CCCCNC(=O)[C@H](CCCCNC(=O)[C@H](CC(C)C)NC(=O)[C@H](Cc1ccccc1)NC(=O)[C@H](CCCCN)NC(=O)[C@H](CCC(N)=O)NC(=O)[C@H](Cc1ccc(O)cc1)NC(=O)[C@H](C)NC(=O)[C@H](C)NC(=O)[C@H](CCC(=O)O)NC(=O)[C@H](CC(C)C)NC(=O)[C@@H](N)Cc1c[nH]c2ccccc12)NC(=O)[C@H](Cc1ccccc1)NC(=O)[C@H](CC(C)C)NC(=O)[C@H](CCCCN)NC(=O)[C@@H](C)NC(=O)[C@H](CC(C)C)NC(=O)[C@H](CCSC)NC(=O)CNC(=O)[C@@H](NC(=O)[C@@H](NC(=O)CNC(=O)[C@H](CO)NC(=O)[C@H](CC(C)C)NC(=O)[C@@H](N)Cc1ccccc1)[C@@H](C)CC)C(C)C)C(N)=O)C(C)C` [conjugate 8] (I: H-FLSGIVGML[dA]KLFK-NH2 / II: H-FLSGIVGML[dA]KLFK / III: H-WLEAAYQKFL; amide I:14-II:C, II:14-III:C (inferred); N-terminus assumed), the half-maximal inhibitory concentration (IC50) at 48 h in data set [2] was > 100 µM. Also, in data set [3], the “Cytotoxicity … (in words)” value is on record as “no cytotoxicity”. Further, in the data set with H460 cells (MTT), the “Activity against H460 cell line (in words)” value is “active”. Further, the IC50 is 14.3 ± 0.7 µM with H460 cells (human, 48 h); 8.7 ± 0.65 µM in the data set with HeLa cells (human, 48 h); 1.7 µM in [1] (human, 48 h); > 100 µM in data set [4] (human, 24 h). Moreover, in the data set on HeLa cells (MTT), the “Activity against HeLa cell line (in words)” value is recorded as “active”.
For the compound `CC[C@H](C)[C@H](NC(=O)CNC(=O)[C@H](CO)NC(=O)[C@H](CC(C)C)NC(=O)[C@@H](N)Cc1ccccc1)C(=O)N[C@H](C(=O)NCC(=O)N[C@@H](CCSC)C(=O)N[C@@H](CC(C)C)C(=O)N[C@H](C)C(=O)N[C@@H](CCCCN)C(=O)N[C@@H](CC(C)C)C(=O)N[C@@H](Cc1ccccc1)C(N)=O)C(C)C` [peptide 4, F-L-S-G-I-V-G-M-L-a-K-L-F] (H-FLSGIVGML[dA]KLF-NH2), the IC50 was 16 to 24 µM in [2]; 16 ± 3.7 µM in data set [3] (mouse); 16 to 24 µM in the data set with H460 cells (MTT, 48 hours, listed as SEQ ID NO: 4, read-out: Cytotoxicity IC50, H460); 24.3 ± 0.84 µM in the data set on H460 cells (setting [7]); 16 to 24 µM in the data set with HeLa cells (MTT, 48 hours, listed as SEQ ID NO: 4, read-out: Cytotoxicity IC50, HeLa); 22.7 ± 0.86 µM in the data set on HeLa cells (setting [8]). Besides, the IC50 is 16 to 24 µM in data set [1] (MTT, 48 hours, listed as SEQ ID NO: 4, read-out: Cytotoxicity IC50, MCF-7); 16.2 ± 2.2 µM in [1] (setting [9]); > 100 µM in data set [4] (setting [10]). In addition, the “Cytotoxicity … (in words)” value in data set [3] was “cytotoxic”.
In the case of “[A^2,6,9, K^3] temporin-SHa [[A^2,6,9, K^3] SHa]”, the “Antiparasitic activity (literature)” value in data set [5] is “lack the antibacterial and antiparasitic activity”. The “Cytotoxicity on THP-1 monocytes (literature)” value in the data set on THP-1 monocytes is “inactive”. The “Cytotoxicity on HepG2 cells (literature)” value with HepG2 cells was “inactive”. In addition, the “Antimicrobial / antibacterial activity (literature)” value in data set [6] was “lack the antibacterial and antiparasitic activity”.
Take [A^2,6,9] temporin-SHa [[A^2,6,9] SHa]: the “Antiparasitic activity (literature)” value in data set [5] was “lack the antibacterial and antiparasitic activity”. Moreover, the “Cytotoxicity on THP-1 monocytes (literature)” value in the data set on THP-1 monocytes was “inactive”. Besides, the “Cytotoxicity on HepG2 cells (literature)” value with HepG2 cells is “inactive”. Besides, the “Antimicrobial / antibacterial activity (literature)” value in data set [6] was “lack the antibacterial and antiparasitic activity”.
Turning to [K^3] temporin-SHa, the “Antimicrobial / antibacterial activity (literature)” value in data set [6] was “more potent antimicrobial activity than temporin-SHa”.
